Assay results: US6649365B1, “Indolamine derivatives for detecting peptidase activity in culture media” (Bio Merieux, priority 1998, dated 2003)

Legend:
P. aeruginosa [1] = assay: Coloration or fluorescence in phosphate buffer, microtitration plates (Example 2); type: cell-based, Pseudomonas aeruginosa; conditions: 0.1 M phosphate buffer pH 7.3, substrate 400 mg/L, 37° C., 24 to 48 hours
Description: (§1) L-Pro-BIA or L-Pro-AMC is added, at the concentration of 400 mg/L, to a 0.1 M phosphate buffer, pH 7.3, at 25° C. The medium obtained is distributed into the wells of microtitration plates which are inoculated with suspensions of P. aeruginosa or of C. albicans. The plates are incubated for 24 hours at 37° C. The wells are examined visually in ambient light and under a UV lamp, after incubation for 24 to 48 hours.

E. coli [2] = assay: as above; type: cell-based, Escherichia coli; conditions: 0.1 M phosphate buffer pH 7.3, 24 to 48 hours
S. pyogenes [3] = assay: as above; type: cell-based, Streptococcus pyogenes; conditions: 0.1 M phosphate buffer pH 7.3, 24 to 48 hours
[4] = system: genera Escherichia, Klebsiella, Citrobacter, Pseudomonas, Enterococcus, Staphylococcus and Streptococcus; assay: Preliminary tests in the medium described in Example 1; type: cell-based; conditions: for leucine-aminopeptidase or proline-aminopeptidase activity demonstrated: substrate added to the medium of Example 1; for revelation of a peptidase activity: medium of Example 1 with addition of the reagents proposed by Lojda and Havrankova (tetrazolium salt and phenazine methosulphate)
Description: In the course of the studies which lead to the present invention, an investigation was, carried out as to whether it was possible to use this enzymatic substrate for detecting microorganisms cultured, in particular, on gelled media. During preliminary tests, L-Leu-BIA or L-Pro-BIA was added to a medium currently used to search for osidases, which is described in Example 1 below.
Similarly, in this medium, with osidase substrates (5-bromo-4-chloro-3-indolyl-β-D-galactoside and 6-chloro-3-indolyl-β-D-glucuronide), the β-galactos-idase and β-glucuronidase activities of the microorganisms can be detected.

E. faecium [5] = assay: Coloration or fluorescence in phosphate buffer, microtitration plates (Example 2); type: cell-based, Enterococcus faecium; conditions: 0.1 M phosphate buffer pH 7.3, 24 to 48 hours
S. agalactiae [6] = assay: as above; type: cell-based, Streptococcus agalactiae; conditions: 0.1 M phosphate buffer pH 7.3, 24 to 48 hours
C. freundii [7] = assay: as above; type: cell-based, Citrobacter freundii; conditions: 0.1 M phosphate buffer pH 7.3, 24 to 48 hours
K. pneumoniae [8] = assay: as above; type: cell-based, Klebsiella Pneumoniae; conditions: 0.1 M phosphate buffer pH 7.3, 24 to 48 hours
[9] = system: Staphylococcus epidermidis; assay: Colony colour or fluorescence on gelled medium of Example 1; type: cell-based; conditions: medium of Example 1, substrate 200 mg/L, 24 or 48 hours
Escherichia coli = assay: as above; type: cell-based; conditions: medium of Example 1, substrate 200 mg/L, 24 or 48 hours
Klebsiella Pneumoniae = assay: as above; type: cell-based; conditions: medium of Example 1, substrate 200 mg/L, 24 or 48 hours
Pseudomonas aeruginosa = assay: as above; type: cell-based; conditions: medium of Example 1, substrate 200 mg/l, 37° C., 24 or 48 hours, ambient light and UV 365 nm
Description: (§2) L-Pro-BIA, or 7-L-prolylamino-4-methylcoumarin (L-Pro-AMC) is added to this medium at a concentration of 200 mg/l. The various media obtained, which are distributed in Petri dishes, are inoculated with microorganisms. The dishes were incubated at 37° C. for 48 hours. The colonies formed were examined visually in ambient light and under a UV lamp (wavelength=365 nm) after incubation for 24 and 48 hours. The colour or the presence of fluorescence was noted. The microorganisms studied were: Pseudomonas aeruginosa and Candida albicans.

Streptococcus agalactiae = assay: as above; type: cell-based; conditions: medium of Example 1, substrate 200 mg/L, 24 or 48 hours
Enterococcus faecium = assay: as above; type: cell-based; conditions: medium of Example 1, substrate 200 mg/L, 24 or 48 hours
Citrobacter freundii = assay: as above; type: cell-based; conditions: medium of Example 1, substrate 200 mg/L, 24 or 48 hours
Streptococcus pyogenes = assay: as above; type: cell-based; conditions: medium of Example 1, substrate 200 mg/L, 24 or 48 hours
Candida albicans = assay: as above; type: cell-based; conditions: medium of Example 1, substrate 200 mg/l, 37° C., 24 or 48 hours, ambient light and UV 365 nm
Description: as §2

C. albicans [10] = assay: Coloration or fluorescence in phosphate buffer, microtitration plates (Example 2); type: cell-based, Candida albicans; conditions: 0.1 M phosphate buffer pH 7.3, substrate 400 mg/L, 37° C., 24 to 48 hours
Description: as §1

S. pyogenes [11] = assay: Colony colour on gelled medium of Example 3; type: cell-based, Streptococcus pyogenes; parameters: key: —: Absence of coloration; Brown = Colony colour; conditions: 37° C.
Description: (§3) L-Pro-BIA, pyroglutamyl-BIA (Pyr-BIA) or Ala-Phe-Pro-BIA is added to this medium. These various media, which are distributed into Petri dishes, are inoculated with various microorganisms: E. coli, K. pneumoniae, C. freundii, p. aeruginosa, S. agalactiae, E. faecium, S. pyogenes, S. epidermidis, C. albicans and C. tropicalis. The dishes are incubated at 37° C. for 48 hours, and the colonies formed are examined visually after incubation for 24 and 48 hours. The colour was noted.

E. faecium [12] = assay: Colony colour on gelled medium of Example 3; type: cell-based, Enterococcus faecium; parameters: key: —: Absence of coloration; Brown = Colony colour; conditions: 37° C.
Description: as §3

P. aeruginosa [13] = assay: Colony colour on gelled medium of Example 3; type: cell-based, Pseudomonas aeruginosa; parameters: key: —: Absence of coloration; Brown = Colony colour; conditions: 37° C.
Description: as §3

C. freundii [14] = assay: Colony colour on gelled medium of Example 3; type: cell-based, Citrobacter freundii; parameters: key: —: Absence of coloration; Brown = Colony colour; conditions: 37° C.
Description: as §3

E. coli [15] = assay: Colony colour on gelled medium of Example 3; type: cell-based, Escherichia coli; parameters: key: —: Absence of coloration; Brown = Colony colour; conditions: 37° C.
Description: as §3

S. agalactiae [16] = assay: Colony colour on gelled medium of Example 3; type: cell-based, Streptococcus agalactiae; parameters: key: —: Absence of coloration; Brown = Colony colour; conditions: 37° C.
Description: as §3

K. pneumoniae [17] = assay: Colony colour on gelled medium of Example 3; type: cell-based, Klebsiella Pneumoniae; parameters: key: —: Absence of coloration; Brown = Colony colour; conditions: 37° C.
Description: as §3

C. albicans [18] = assay: Colony colour on gelled medium of Example 3; type: cell-based, Candida albicans; parameters: key: —: Absence of coloration; Brown = Colony colour; conditions: 37° C.
Description: as §3

C. tropicalis = assay: Colony colour on gelled medium of Example 3; type: cell-based; parameters: key: —: Absence of coloration; Brown = Colony colour; conditions: 37° C.
Description: as §3

S. epidermidis = assay: Colony colour on gelled medium of Example 3; type: cell-based, Staphylococcus epidermidis; parameters: key: —: Absence of coloration; Brown = Colony colour; conditions: 37° C.
Description: as §3

Cc1cc(=O)oc2cc(NC(=O)[C@@H](N)CC(C)C)ccc12 [L-Leu-AMC, 7-L-leucylamino-4-methylcoumarin]
peptidase activity revealed by coloration or fluorescence of the wells (P. aeruginosa [1]): detected, by emission of fluorescence | peptidase activity revealed by coloration or fluorescence of the wells (E. coli [2]): detected, by emission of fluorescence | peptidase activity revealed by coloration or fluorescence of the wells (S. pyogenes [3]): detected, by emission of fluorescence | leucine-aminopeptidase or proline-aminopeptidase activity demonstrated [4]: a fluorescence | peptidase activity revealed by coloration or fluorescence of the wells (E. faecium [5]): detected, by emission of fluorescence | peptidase activity revealed by coloration or fluorescence of the wells (S. agalactiae [6]): detected, by emission of fluorescence | peptidase activity revealed by coloration or fluorescence of the wells (C. freundii [7]): detected, by emission of fluorescence | peptidase activity revealed by coloration or fluorescence of the wells (K. pneumoniae [8]): detected, by emission of fluorescence

C[C@H](N)C(=O)Nc1c[nH]c2ccc(Br)cc12 [L-Ala-BIA]
peptidase activity revealed by colour or fluorescence of the colonies [9]: no coloration | peptidase activity revealed by colour or fluorescence of the colonies (Escherichia coli): no coloration | peptidase activity revealed by colour or fluorescence of the colonies (Klebsiella Pneumoniae): no coloration | peptidase activity revealed by colour or fluorescence of the colonies (Pseudomonas aeruginosa): no coloration | peptidase activity revealed by colour or fluorescence of the colonies (Streptococcus agalactiae): no coloration | peptidase activity revealed by colour or fluorescence of the colonies (Enterococcus faecium): no coloration | peptidase activity revealed by colour or fluorescence of the colonies (Citrobacter freundii): no coloration | peptidase activity revealed by colour or fluorescence of the colonies (Streptococcus pyogenes): no coloration

Cc1cc(=O)oc2cc(NC(=O)[C@@H]3CCCN3)ccc12 [L-Pro-AMC, 7-L-prolylamino-4-methylcoumarin]
peptidase activity revealed by coloration or fluorescence of the wells (P. aeruginosa [1]): possible to reveal an L-Pro-aminopeptidase activity | peptidase activity revealed by colour or fluorescence of the colonies (Candida albicans): emission of a fluorescence | peptidase activity revealed by colour or fluorescence of the colonies (Pseudomonas aeruginosa): emission of a fluorescence | leucine-aminopeptidase or proline-aminopeptidase activity demonstrated [4]: a fluorescence | peptidase activity revealed by coloration or fluorescence of the wells (C. albicans [10]): possible to reveal an L-Pro-aminopeptidase activity

CC(N)C(=O)NC(Cc1ccccc1)C(=O)N1CCCC1C(=O)Nc1c[nH]c2ccc(Br)cc12 (stereo not drawn) [Ala-Phe-Pro-BIA]
Colony colour (S. pyogenes [11]; 24 H): Brown | Colony colour (S. pyogenes [11]; 48 H): Brown | Colony colour (E. faecium [12]; 24 H): — | Colony colour (E. faecium [12]; 48 H): — | Colony colour (P. aeruginosa [13]; 24 H): Brown | Colony colour (P. aeruginosa [13]; 48 H): Brown | Colony colour (C. freundii [14]; 24 H): Brown | Colony colour (C. freundii [14]; 48 H): Brown | Colony colour (E. coli [15]; 24 H): Brown^2 | Colony colour (E. coli [15]; 48 H): Brown | Colony colour (S. agalactiae [16]; 24 H): Brown | Colony colour (S. agalactiae [16]; 48 H): Brown | Colony colour (K. pneumoniae [17]; 24 H): Brown | Colony colour (K. pneumoniae [17]; 48 H): Brown

O=C(Nc1c[nH]c2ccc(Br)cc12)[C@@H]1CCCN1 [L-Pro-BIA]
peptidase activity revealed by coloration or fluorescence of the wells (P. aeruginosa [1]): No coloration | Colony colour (C. albicans [18]; 24 H): Brown | Colony colour (C. albicans [18]; 48 H): Brown | Colony colour (P. aeruginosa [13]; 24 H): Brown | Colony colour (P. aeruginosa [13]; 48 H): Brown | Colony colour (C. freundii [14]; 24 H): — | Colony colour (C. freundii [14]; 48 H): — | Colony colour (E. coli [15]; 24 H): —^1 | Colony colour (E. coli [15]; 48 H): — | peptidase activity revealed by colour or fluorescence of the colonies (Candida albicans): no coloration | peptidase activity revealed by colour or fluorescence of the colonies (Pseudomonas aeruginosa): no coloration | revelation of a peptidase activity [4]: without allowing the revelation of a peptidase activity | leucine-aminopeptidase or proline-aminopeptidase activity demonstrated [4]: not possible to demonstrate | peptidase activity revealed by coloration or fluorescence of the wells (C. albicans [10]): No coloration | Colony colour (C. tropicalis; 24 H): — | Colony colour (C. tropicalis; 48 H): — | Colony colour (K. pneumoniae [17]; 24 H): — | Colony colour (K. pneumoniae [17]; 48 H): —

O=C1CCC(C(=O)Nc2c[nH]c3ccc(Br)cc23)N1 (centres unmarked) [Pyr-BIA, pyroglutamyl-BIA]
Colony colour (S. epidermidis; 24 H): — | Colony colour (S. epidermidis; 48 H): — | Colony colour (S. pyogenes [11]; 24 H): Brown | Colony colour (S. pyogenes [11]; 48 H): Brown | Colony colour (E. faecium [12]; 24 H): Brown | Colony colour (E. faecium [12]; 48 H): Brown | Colony colour (P. aeruginosa [13]; 24 H): Brown | Colony colour (P. aeruginosa [13]; 48 H): Brown | Colony colour (C. freundii [14]; 24 H): — | Colony colour (C. freundii [14]; 48 H): Brown | Colony colour (E. coli [15]; 24 H): — | Colony colour (E. coli [15]; 48 H): — | Colony colour (S. agalactiae [16]; 24 H): — | Colony colour (S. agalactiae [16]; 48 H): — | Colony colour (K. pneumoniae [17]; 24 H): — | Colony colour (K. pneumoniae [17]; 48 H): Brown

CC(C)C[C@H](N)C(=O)Nc1c[nH]c2ccc(Br)cc12 [L-Leu-BIA, 3-L-leucylamino-5-bromoindole]
peptidase activity revealed by colour or fluorescence of the colonies [9]: no coloration | peptidase activity revealed by coloration or fluorescence of the wells (P. aeruginosa [1]): did not make it possible to detect | peptidase activity revealed by colour or fluorescence of the colonies (Escherichia coli): no coloration | peptidase activity revealed by colour or fluorescence of the colonies (Klebsiella Pneumoniae): no coloration | peptidase activity revealed by coloration or fluorescence of the wells (E. coli [2]): did not make it possible to detect | peptidase activity revealed by colour or fluorescence of the colonies (Pseudomonas aeruginosa): no coloration | peptidase activity revealed by colour or fluorescence of the colonies (Streptococcus agalactiae): no coloration | peptidase activity revealed by coloration or fluorescence of the wells (S. pyogenes [3]): did not make it possible to detect | revelation of a peptidase activity [4]: without allowing the revelation of a peptidase activity | leucine-aminopeptidase or proline-aminopeptidase activity demonstrated [4]: not possible to demonstrate | peptidase activity revealed by coloration or fluorescence of the wells (E. faecium [5]): did not make it possible to detect | peptidase activity revealed by coloration or fluorescence of the wells (S. agalactiae [6]): did not make it possible to detect | peptidase activity revealed by coloration or fluorescence of the wells (C. freundii [7]): did not make it possible to detect | peptidase activity revealed by colour or fluorescence of the colonies (Enterococcus faecium): no coloration | peptidase activity revealed by coloration or fluorescence of the wells (K. pneumoniae [8]): did not make it possible to detect | peptidase activity revealed by colour or fluorescence of the colonies (Citrobacter freundii): no coloration | peptidase activity revealed by colour or fluorescence of the colonies (Streptococcus pyogenes): no coloration
